Molecules are shown by their SMILES.

These results are taken from patent US20250223306A1, “TEAD INHIBITORS AND METHODS OF USE” (Sporos BioDiscovery, Inc., priority 2022, published 2025).

The test system of one assay is NCI-H28 cells. As to the kind of experiment: Proliferation, Cell Titer One assay. It is filed as cell-based. As to conditions: 6 days. The method, then: (§1) Cell proliferation of a TEAD dependent NF2-null mesothelioma cell line, NCI-H226, and a TEAD-non-dependent mesothelioma cell line, NCI-H28 was assayed using two different protocols: • a) CellTiter-Glo 2.0 (Promega #G9243). The effect of the TEAD inhibitors disclosed herein on cell proliferation was determined in TEAD1-genetically dependent cell line NCI-H226 (responder cell line) and TEAD-independent cell lines (NCI-H23, HEK293T), as non-responder, negative control. Cells were seeded in 96-well plates (Thermo Scientific #167008) in growth media (RPMI-1640, Gibco #61870-010) for NCI-H226 and NCI-H23 or DMEM (Gibco #31966-021, HEK293T) with 10% Heat Inactivated Fetal Bovine Serum (Gibco 10500-064) at 800 (NCI-H226 and HEK-293T) or 2000 (NCI-H23) cells per well at 37° C., 5% CO2, humidified incubator; 24 hours later, fresh growth media containing test compound or DMSO vehicle was added and incubated with the cells for 144 hrs. TEAD inhibitor stocks were made at a 1000× fold excess in DMSO, and a dose response test compound dose range of 10,000 to 0.1 nM was used. Each treatment was carried out in triplicate. After 144 hrs of treatment, relative cell viability numbers were determined using the CellTiter-Glo 2.0 assay following the manufacturer's instructions. Test plates and CellTiter-Glo 2.0 reagent were allowed to equilibrate to room temperature. CellTiter-Glo 2.0 reagent was added at 1:1 reagent to media ratio to the 96-well cell plates, plates were placed on a plate shaker for 2 minutes and then incubated at room temperature for a further 10 minutes to allow complete cell lysis to occur. The mix was then transferred to white, 96-well luminometer assay plates (Greiner Bio One #655075). Luminescence was quantified using a CLARIOStar Plus multi-mode plate reader (BMG Labtech) in luminescence detection mode with the recommended settings (ultra-Glo pre-set: emission 545-50 nm with autofocus and enhanced dynamic range on). Relative cell density was expressed as a function of inhibitor concentration, with respect to DMSO-only control wells. Data where plotted using GraphPad Prism and IC50 values for the biological effect were calculated using the EC50 non-linear fit function using a sigmoidal, 4-parameter logistic, least squares fit with no constraints. • b) Cell Titer One (Promega, #G3582). The effect of the TEAD inhibitors disclosed herein on cell proliferation was also determined using the Promega Substrate Cell Titer Aqueous One Solution Reagent. The TEAD inhibitors were evaluated for the effects on cell proliferation responder (H226) and non-responder negative control cancer cell lines (CAMA1, H28), as well as non-transformed normal human cells (HUVEC, NHDF). Dissociated cells were resuspend in media (depending on cell line, either in DMEM, RPMI, or EMEM all with 10% FBS, with gentamicin as an antibiotic). Cells were seeded at 100 μL/well at 750 cells per well in 96-well plates and allowed to settle and attach. After an incubation of 24 hrs (37° C., 5% CO2, humidified incubator), 100 μL of test compound-containing media was added. A dilution series of 2000× concentrated stock of test compounds was prepared in DMSO, for final concentrations from 0.1 to 10,000 nM. After addition of test compound-containing media, cells were incubated for 6 days at 37° C., 5% CO2, humidified incubators). To measure cell density, 20 μL of Promega Substrate Cell Titer 96 Aqueous One Solution Reagent (Promega, #G3582) to each well was added according to the manufacturer's instructions. Plates were incubated at 37° C. for usually 3-8 hrs, to reach in the control cells (without compound) an OD of 1.5 at 490 nm. The OD was measured using Vmax [Molecular Devices] spectrophotometer plate reader. Media only-wells were used as background controls and cell densities normalized to DMSO vehicle control. ECs were taken as the concentration achieving 50% of maximal growth inhibition.

The test system of a further assay is NCI-H226 cells. As to the kind of experiment: Proliferation, Cell Titer One assay. It is filed as cell-based. As to conditions: 6 days. The method, then:
as §1

As for `C[C@H](NC(=O)c1cnc2c(C3=CC[C@@H](C(F)(F)F)CC3)cccc2c1)c1ncco1` (single isomer, unassigned) [Compound 19, N-(1-(oxazol-2-yl)ethyl)-8-(4-(trifluoromethyl)cyclohex-1-en-1-yl)quinoline-3-carboxamide], the IC50 in the assay with NCI-H28 cells (Homo sapiens, NCI-H28, 144 h) was above 1000 nM; in the assay with NCI-H226 cells (Homo sapiens, NCI-H226, 144 h), below 200 nM.
As to `C[C@H](NC(=O)c1cnc2c(C3=CC[C@@H](C(F)(F)F)CC3)cccc2c1)c1ncco1` (single isomer, unassigned) [Compound 20, N-(1-(oxazol-2-yl)ethyl)-8-(4-(trifluoromethyl)cyclohex-1-en-1-yl)quinoline-3-carboxamide], the IC50 with NCI-H28 cells is above 1000 nM; in the assay with NCI-H226 cells it was below 200 nM.
Consider `C[C@H](NC(=O)c1cnc2c(C3=CCC(C(F)(F)F)CC3)cccc2c1)c1ccccn1` (stereo partly drawn) [Compound 2, N—((S)-1-(pyridin-2-yl)ethyl)-8-(4-(trifluoromethyl)cyclohex-1-en-1-yl)quinoline-3-carboxamide], for which the IC50 in the assay on NCI-H28 cells (Homo sapiens, NCI-H28, 144 h) is above 1000 nM; in the assay on NCI-H226 cells (Homo sapiens, NCI-H226, 144 h), below 200 nM.
For `C[C@H](CO)NC(=O)c1cnc2c(C3=CCC(C(F)(F)F)CC3)cccc2c1` (stereo partly drawn) [Compound 7, N—((R)-1-hydroxypropan-2-yl)-8-(4-(trifluoromethyl)cyclohex-1-en-1-yl)quinoline-3-carboxamide], the half-inhibitory concentration (IC50) with NCI-H28 cells (Homo sapiens, NCI-H28, 144 h) was above 1000 nM; in the assay with NCI-H226 cells (Homo sapiens, NCI-H226, 144 h) it was below 200 nM.
Consider `O=C(NCc1ncco1)c1cnc2c(C3=CCC(C(F)(F)F)CC3)cccc2c1` (stereo not shown) [Compound 11, N-(oxazol-2-ylmethyl)-8-(4-(trifluoromethyl)cyclohex-1-en-1-yl)quinoline-3-carboxamide], for which the IC50 in the assay on NCI-H28 cells (Homo sapiens, NCI-H28, 144 h) is above 1000 nM; in the assay on NCI-H226 cells (Homo sapiens, NCI-H226, 144 h), below 200 nM.
